Three compounds from patent US20240415819A1, “MACROCYCLIC COMPOUNDS AS PROTEASOME SUBUNIT BETA TYPE-5 INHIBITORS” (Lead Discovery Center GmbH, priority 2021, published 2024) can be followed below.

The test system of assay [1] is HT-29 cells. Kind of assay: CellTiter-Glo luminescent cell viability assay with HT-29 cells (72h incubation). In kind it is cell-based, human. Particulars: Homo sapiens, HT-29, HT29 cells, read-out: CTG HT29. The essentials: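 Viability read as CellTiter-Glo luminescence after 72 h compound exposure, with 10 μM staurosporine and DMSO as control wells. Seeding 400 cells per well, compound added 24 h post-plating; IC50 from curve fitting.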
For orientation: Cellular ATP, detected with luciferase, serves as a proxy for viable cell number.

The test system of assay [2] is B-cells isolated from PBMC's. In words: Chymotrypsin-like ProteasomeGlo assay in B-cells isolated from PBMCs. It counts as cell-based, human. As to conditions: Homo sapiens; B-cells isolated from PBMC's; read-out: Pglo B-Cell. From the text: PBMC's will be isolated from human blood followed by B-cell isolation from the PBMC's using the Miltenyi Isolation Kit. • 2. This experiment will use the Chymotrypsin-like ProteasomeGlo read-out to generate IC50's following compound treatment. • 3. Dilute all compounds 1:100 for the assay. • 4. […] Repeat the DMSO transfer with lane 12. • 5. Lane 12 should not be seeded with any cells. Only medium! • 6. For all steps, make sure the samples and reagents remain cool! • 7. While dealing with the buffy coats, be careful to not let any exposed skin to be in direct contact with the blood. […] PBMC isolation followed by B-cell isolation using the Miltenyi Kit • Day 2: B-cell plating, ECHO transfer and ProteasomeGlo assay For the initial steps and to make processing the buffy coats easier, separately process the buffy coats. • a. Cut the tube attached to the buffy coats carefully using a clean, sterile and fresh scalpel. • b. Transfer the blood into 2 individual 50 ml falcons. • c. Add an equal volume of DPBS to the blood in the falcons. • d. Add 20 ml of lymphocyte separating medium to two 50 ml falcons. • e. Carefully pour 15-20 ml of the blood+DPBS mix from step c. onto the lymphocyte separating medium from step d. • f. Centrifuge the falcons with the lymphocyte separating medium+blood mix at 800×g for 15 minutes using a swing-out rotor. • g. Following centrifugation, carefully remove the falcons from the centrifuge. • h. The following layers will be observed: • i. Aspirate the plasma layer off carefully without disturbing the different layers. • j. Remove the cell pellet using a pipette into two fresh 50 ml falcons. • k. Fill the falcons with the cells up to 50 ml with DPBS. • l. Centrifuge the falcons at 250×g for 10 minutes using a swing-out rotor (Brake-off). • m. Aspirate the complete DPBS off the cells without disturbing the cell pellet at the bottom of the falcon. • n. Re-suspend the cell pellet in 10 ml of 1×RBC lysis buffer. • o. Incubate the falcons at room temperature in the dark for 10 minutes. • p. After RBC lysis, centrifuge the tubes at 250×g for 10 minutes using a swing-out rotor (brake-off). • (*Note: If the cell pellet is still red or light red, repeat steps n. to p.!) • q. Re-suspend the cell pellet in DPBS up to 50 ml in the falcon. • r. Centrifuge the falcons at 250×g for 10 minutes using a swing-out rotor (Brake-off). • s. Aspirate the DPBS off the cells without disturbing the cell pellet at the bottom of the falcon. • t. Repeat the wash step as described in steps q. to s. 2× times more (total number of washes is 3×). • u. Aspirate the DPBS completely off the cell pellet after the last wash without disturbing the cell pellet. • v. Re-suspend the cell pellet in 20 ml of PBMC cell medium. • w. […] Re-suspend the pellet in volume of the B-cell isolation buffer calculated as follows: • k. Mix well using a 1 ml pipette and incubate the mix on ice for 20 mins. • l. In the meantime, equilibrate one LS Column as follows: • 1. Insert one LS Column into one slot of the separator as depicted in the pictures above. • 2. Place a 50 ml falcon at the bottom of the LS column to collect the wash flow-through. • 3. Add 3 ml of the B-cell isolation buffer into the column. • 4. Allow the buffer to flow-through making sure that the entire volume passes the column and that the column reservoir is empty before the addition of the cells. • 5. Remove the falcon with the flow-through and discard. • m. Place a fresh 50 ml falcon under the LS Column to collect the untouched B-cells isolated from the PBMCs. • n. Apply the entire volume of the cell+antibody+microbeads mix to the LS Column. • o. Collect the flow-through from each application of the mix into the same 50 ml falcon under the LS Column. • p. Once the complete volume of the cell+antibody+microbead mix has been passed through, proceed to washing of the column. • q. Add 3 ml of the B-cell isolation buffer to the LS Column and allow the buffer to flow-through. […]

The target in assay [3] is T1, β5 subunit of the human constitutive proteasome (CPS) (Homo sapiens, UniProt P28074).
T1 construct: purchased Boston Biochem E-360
In words: β5 inhibition assay, human constitutive proteasome (Suc-LLVY-AMC). It counts as biochemical. Particulars: IC50 class, Suc-LLVY-AMC substrate. As for the experimental part: The enzymatic activity of the β5 subunit of the human constitutive proteasome (CPS) is analyzed. In another assay, which differs from the assay of the human constitutive proteasome only in using the human immunoproteasome (IPS) the enzymatic activity of the β5 subunit of the human immunoproteasome (IPS) is analyzed. […] Inhibition is indicated as IC50 [nM] (“-”=not measured).

The target in assay [4] is T2, β5 subunit of the human immunoproteasome (IPS) (Homo sapiens, UniProt P28062).
T2 construct: purchased Boston Biochem E-370
In words: β5 inhibition assay, human immunoproteasome (Suc-LLVY-AMC). In kind it is biochemical. Particulars: IC50 class, Suc-LLVY-AMC substrate. The gist of the method:
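β5 activity is read as liberated AMC fluorescence (355/460 nm) after 4 h dark reaction at RT with 22.6 μM Suc-LLVY-AMC, stopped by 1 μM bortezomib. Beforehand, 1 nM human IPS and compound sat 10 min at RT in HEPES pH 7.5 buffer containing NaCl, 0.02% SDS and DTT.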

Assay [5] relates to A549 (human lung carcinoma cell line). Kind of assay: Glo assay of A549 cells (Table 3; ProteasomeGlo plating scheme). In kind it is cell-based. Particulars: Homo sapiens; A549 cells; read-out: PGLo A549. The essentials: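 Luminescent read-out of cellular chymotrypsin-like proteasome activity: cells exposed to compound 105 min at 37° C., 5% CO2, then given Suc-LLVY-Glo reagent, shaken 2-5 min and kept dark 10-15 min before reading. Values are IC50 [nM].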

Assay [6] deals with Karpas cells. Kind of assay: Glo assay of Karpas cells (Table 3; ProteasomeGlo plating scheme). In kind it is cell-based. Particulars: read-out: Pglo Karpas. The text has this: Inhibition is indicated as IC50 [nM] (“-”=not measured). […] • Chymotrypsin-Like Cell-Based Proteasome-GloTM Assay (Promega; […]) • Cell culture 384-well plates (Greiner BioOne; 781080) • Dispensing cassette, MultiDrop Standard tube dispensing cassette (Thermo Scientific; 24072670) • DPBS (Pan BioTech; P04-36500) • Cell culture 384-well plates (Greiner BioOne; 781080) • CPD source plate: diamond-shape plate (Labcyte; LP-0200) • Intermediate plate (Labcyte; P-05525) [table] • a. Remove the plates with cells from the incubator. • b. Take all the plates including the compound plate, intermediate plate and Staurosporine plate to the ECHO. • c. Click on “Open” in the ECHO software and select the protocol “QLI5_25ul_30 uM-Grenier”. • d. Follow the on-screen prompts and instructions once you click “Start” to insert the compound plate, intermediate plate and destination plates. • e. Change the final number of destination plates on the program. • f. Follow the on-screen prompts and instructions once you click “Start” to load the Staurosporine and destination plates. • g. Once all the compounds, DMSO and Staurosporine have been transferred, place the destination plates in a wet tissue box. • h. Place the destination plates back into the incubator and incubate at 37° C., 5% CO2 for 105 minutes. • i. Re-seal all the compound+Stauro diamond and intermediate plates and store in the dark. Chymotrypsin like ProteasomeGlo Assay • 1. Thaw the components of the ProteasomeGlo assay at room temperature including the ProteasomeGlo Buffer, the lyophilized Luciferin Detection Reagent and the Suc-LLVY-Glo Substrate. • 2. Reconstitute the Luciferin Detection Reagent in the amber coloured bottle by adding 50 ml of the ProteasomeGlo Buffer. • 3. Vortex the Suc-LLVY-Glo Substrate briefly to reconstitute the Substrate well. • 4. Spin down the Substrate and add 250 μl of the Substrate to the reconstituted Luciferin Detection Reagent from step 2. • 5. Briefly vortex the amber bottle with the mix to prepare a homogenous solution. • 6. Place the mix prepared in step 5 to sit at room temperature for 60 minutes. • 7. After 60 minutes, pipette 25 μl of the mix from step 5 into all wells with the cells. • 8. Shake the plates for 2-5 minutes to ensure the complete mixing of the ProteasomeGlo reagent with the cells. • 9. Leave the plates in the dark for 10-15 minutes. • 10. Measure the luminescence read-out using the Viktor and the protocol “Luminescence_384Well_0.2 sec”. (Note: The Protoeasome-GloTM Reagent (combined Proteasome-GloTM Substrate, Proteasome-GloTM Buffer and Luciferin Detection Reagent) can be stored at 4° C. or -20° C. for 1 month with minimal loss of activity.)

Assay [7] relates to hPMBC. In words: Chymotrypsin-like ProteasomeGlo assay in hPBMC. It counts as cell-based. As to conditions: Homo sapiens; read-out: Pglo hPBMC. The text has this:
Chymotrypsin-like ProteasomeGlo assay in the B-cells isolated from PBMC's following compound addition (IC50). • 1. PBMC's will be isolated from human blood followed by B-cell isolation from the PBMC's using the Miltenyi Isolation Kit. • 2. This experiment will use the Chymotrypsin-like ProteasomeGlo read-out to generate IC50's following compound treatment. • 3. Dilute all compounds 1:100 for the assay. • 4. […] Repeat the DMSO transfer with lane 12. • 5. Lane 12 should not be seeded with any cells. Only medium! • 6. For all steps, make sure the samples and reagents remain cool! • 7. While dealing with the buffy coats, be careful to not let any exposed skin to be in direct contact with the blood.
For the initial steps and to make processing the buffy coats easier, separately process the buffy coats. • a. Cut the tube attached to the buffy coats carefully using a clean, sterile and fresh scalpel. • b. Transfer the blood into 2 individual 50 ml falcons. • c. Add an equal volume of DPBS to the blood in the falcons. • d. Add ˜20 ml of lymphocyte separating medium to two 50 ml falcons. • e. Carefully pour 15-20 ml of the blood+DPBS mix from step c. onto the lymphocyte separating medium from step d. • f. Centrifuge the falcons with the lymphocyte separating medium+blood mix at 800×g for 15 minutes using a swing-out rotor. • g. Following centrifugation, carefully remove the falcons from the centrifuge. • h. The following layers will be observed: • i. Aspirate the plasma layer off carefully without disturbing the different layers. • j. Remove the cell pellet using a pipette into two fresh 50 ml falcons. • k. Fill the falcons with the cells up to 50 ml with DPBS. • l. Centrifuge the falcons at 250×g for 10 minutes using a swing-out rotor (Brake-off). • m. Aspirate the complete DPBS off the cells without disturbing the cell pellet at the bottom of the falcon. • n. Re-suspend the cell pellet in 10 ml of 1×RBC lysis buffer. • o. Incubate the falcons at room temperature in the dark for 10 minutes. • p. After RBC lysis, centrifuge the tubes at 250×g for 10 minutes using a swing-out rotor (brake-off). • (*Note: If the cell pellet is still red or light red, repeat steps n. to p.!) • q. Re-suspend the cell pellet in DPBS up to 50 ml in the falcon. • r. Centrifuge the falcons at 250×g for 10 minutes using a swing-out rotor (Brake-off). • s. Aspirate the DPBS off the cells without disturbing the cell pellet at the bottom of the falcon. • t. Repeat the wash step as described in steps q. to s. 2× times more (total number of washes is 3×). • u. Aspirate the DPBS completely off the cell pellet after the last wash without disturbing the cell pellet. • v. Re-suspend the cell pellet in 20 ml of PBMC cell medium. • w.
• a. Remove the plates with cells from the incubator. • b. Take all the plates including the compound plate, intermediate plate and Staurosporine plate to the ECHO. • c. Click on “Open” in the ECHO software and select the protocol “QLI5_25ul_30 uM-Grenier”. • d. Follow the on-screen prompts and instructions once you click “Start” to insert the compound plate, intermediate plate and destination plates. • e. Change the final number of destination plates on the program. • f. Follow the on-screen prompts and instructions once you click “Start” to load the Staurosporine and destination plates. • g. Once all the compounds, DMSO and Staurosporine have been transferred, place the destination plates in a wet tissue box. • h. Place the destination plates back into the incubator and incubate at 37° C., 5% CO2 for 105 minutes. • i. Re-seal all the compound+Stauro diamond and intermediate plates and store in the dark. Chymotrypsin like ProteasomeGlo Assay • 1. Thaw the components of the ProteasomeGlo assay at room temperature including the ProteasomeGlo Buffer, the lyophilized Luciferin Detection Reagent and the Suc-LLVY-Glo Substrate. • 2. […]

A value given as a limit tells only on which side of the number the result lay.

Turning to `Cc1cc(C)c2cc1CNC(=O)[C@H](CCc1ccccc1)NC(=O)CCC(=O)N1CCCC(CCO2)C1` (stereo partly drawn) [Compound 59, (9R)-5^4,5^6-dimethyl-9-phenethyl-4-oxa-7,10-diaza-1(3,1)-piperidina-5(1,3)-benzenacyclotetradecaphane-8,11,14-trione], the IC50 lay within 1000 to 5000 nM in assay [1] and 100 to 500 nM in assay [2].
On to `Cc1ccc2cc1CNC(=O)[C@H](CCc1ccccc1)NC(=O)CCCC(=O)N1CCCC(CCO2)C1` (stereo partly drawn) [Compound 19, (9S)-5^4-methyl-9-phenethyl-4-oxa-7,10-diaza-1(3,1)-piperidina-5(1,3)-benzenacyclopentadecaphane-8,11,15-trione], for which the IC50 in assay [3] is less than 100 nM; in assay [4] it was less than 100 nM; in assay [1] it was 1000 to 5000 nM; in assay [5] it was 1000 to 5000 nM; in assay [6], 500 to 1000 nM.
As to `CC(=O)N[C@H]1CC(=O)N2CCCC(C2)Oc2ccc(C)c(c2)CNC(=O)[C@H](CCc2ccccc2)NC1=O` (stereo partly drawn) [Compound 255, N-((7S,10S)-3^4-methyl-6,9,12-trioxo-7-phenethyl-2-oxa-5,8-diaza-1(3,1)-piperidina-3(1,3)-benzenacyclododecaphane-10-yl)acetamide], the IC50 was 100 to 500 nM in assay [1], more than 5000 nM in assay [5] and more than 5000 nM in assay [7].
